US7199113B2, “Pharmaceutically active compounds and methods of use thereof” (priority 1998, dated 2007)

Assays:
Type in all cases: biochemical
[1] = molecular target: T1, TF/VIIa complex (Homo sapiens, UniProt P13726); assay: TF/VIIa-dependent FIX activation assay; settings: for blocking activity in standard assay for TF/VIIa-dependent factor IX activation: statement on FIG. 3; for inhibition of TF/VIIa-dependent FIX activation: statement on Table 4 (FIG. 2(d))
T1 construct: Truncated recombinant human tissue factor (e.g. composed of 243 amino acids) is expressed in E. coli; host or cells: E. coli (TF)
Procedure: In a more particular embodiment, the standard assay preferably includes the following steps: • 1) admixing in a suitable assay solution about 0.7 nM TF/VIIa complex with 300 nM factor IX and 1000 nM factor X, and from between about 0.5 μl to about 10 μl of at least one compound to be tested (optionally dissolved in an appropriate vehicle such as water or dimethylsulfoxide (DMSO)) and incubating the solution at 37° C. from between about a few minutes up to about an hour under conditions suitable for forming FIXa and FXa; • 2) contacting the solution with a suitable chelating agent such as EDTA to stop FIX activation; • 3) contacting the solution with a chromogenic substrate specific for the FXa (e.g., Spectrozyme FXa) and incubating same at 37° C.; and • 4) detecting chromophore in the solution as being indicative of the factor IX activation.
TF/VIIa is not only able to activate FX, but is also able to convert FIX to FIXa. To examine whether the two antagonists 1 and 2 were able to block FIX activation catalyzed by TF/VIIa. FIX activation experiment was conducted. To each well of a 96-well plate, 5 μl of diluted DMSO or compound was added, followed by 45 μl of TF/VIIa (0.67 nM). After mixing and incubating for 15 minutes at 37° C., 10 μl of FIX (300 nM) was added and incubated for 10 minutes at 37° C. 10 μl of EDTA ([…] in 144 mM HEPES, […], 0.576% BSA, pH adjusted to 7.5) was added, followed by addition of 10 μl of FX (1000 nM), 10 μl of polylysine, and 10 μl of Spectrozyme FXa (6 mM). After 3 hour incubation at 37° C., absorbance at 405 nm was measured following addition of 20 μl of 50% acetic acid. The percent inhibition of TF/VIIa-dependent FIX activation was calculated from OD405 nm values in the absence and presence of a compound.

[2] = molecular target: T2, human recombinant TF/VIIa complex (lipidated) (Homo sapiens, UniProt P13726); assay: TF/VIIa-dependent FX activation assay
T2 construct: Truncated recombinant human tissue factor (e.g. composed of 243 amino acids) is expressed in E. coli; host or cells: E. coli (TF)

[3] = molecular target: T3, FVIIa (Homo sapiens, UniProt P08709); assay: FVIIa-dependent FX activation (TF omitted); settings: statement on Table 2 (FIG. 2(b))
T3 construct: proteolytic cleavage of the zymogen FVII to the active serine protease FVIIa; purchased Enzyme Research Laboratories Inc
T3 sequence (P08709 213-466 limits assumed): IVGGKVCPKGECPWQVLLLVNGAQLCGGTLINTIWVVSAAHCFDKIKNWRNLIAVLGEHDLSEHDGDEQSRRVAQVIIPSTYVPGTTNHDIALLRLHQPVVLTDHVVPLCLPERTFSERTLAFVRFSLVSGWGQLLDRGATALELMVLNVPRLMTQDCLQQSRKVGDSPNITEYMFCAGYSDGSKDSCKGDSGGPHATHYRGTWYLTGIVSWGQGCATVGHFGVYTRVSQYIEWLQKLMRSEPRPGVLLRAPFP
T3 sequence (P08709 61-212 limits assumed): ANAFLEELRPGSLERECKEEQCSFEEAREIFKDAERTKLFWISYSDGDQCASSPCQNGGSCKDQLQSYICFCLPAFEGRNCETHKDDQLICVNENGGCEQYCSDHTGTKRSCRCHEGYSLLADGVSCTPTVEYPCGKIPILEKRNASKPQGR
Procedure: FVIIa alone in the presence of phospholipids and calcium is also able to activate FX, although at a very low rate. This experiment was designed to examine whether compounds 1 and 2 inhibit FVIIa-dependent FX activation if TF is omitted. […] This assay was done at relatively high FVIIa concentrations. Six microliters of compound 1(1 mM in 10% DMSO) or 10% DMSO was mixed with 40 μl of 25 mM HEPES-NaOH, 5 mM CaCl2, 150 mM NaCl, 0.1% BSA, pH 7.5 containing phosphatidylcholine (0.07 mg/ml) and phosphatidylserine (0.03 mg/ml). Then 4 μl of FVIIa (1.5 μM) and 10 μl of FX (180 nM) were added and mixed. The mixture was incubated for 1 hour at 37° C. Then 10 μl of EDTA (400 mM) was added to stop FVII activity by removing the calcium required for factor VII activity. Then 10 μl of FXa substrate S-2765 (3.2 mM) was added to measure the FXa activity generated by FVIIa. After 16 minutes incubation at 37° C., 20 μl of 50% acetic acid was added to quench the reaction. Absorbance at 405 nm was read and the percent inhibition of FVIIa-dependent FX activation was calculated from OD405 nm values in the absence and presence of compound 1.

[4] = molecular target: T4, FIXa (Homo sapiens, UniProt P00740); assay: FIXa-dependent FX activation assay; settings: statement on Table 2 (FIG. 2(b))
T4 construct: FIX was first converted to FIXa by TF/VIIa in the absence of compound; purchased Enzyme Research Laboratories Inc
Procedure: FIX was first converted to FIXa by TF/VIIa in the absence of compound. This was done in a 50-ml tube. After incubating TF/VIIa (0.67 nM, 10 ml) at 37° C. for 15 minutes, FIX (300 nM, 0.123 ml) was added and incubated at 37° C. for 30 minutes. Then 1.54 ml of EDTA (400 mM) was added to stop the FIX activation. Then 65 μl of the above FIXa sample was transferred into wells of a 96-well plate that contain 5 μl of diluted DMSO (or buffer) or compound (in diluted DMSO or buffer). Ten μl of FX (1000 nM), 10 μl of polylysine (300 nM), and 10 μl of Spectrozyme FXa (5 mM) were added to each well and incubate at 37° C. until an OD405 nm value of ˜0.8 was reached. Absorbance at 405 nm was then measured following addition of 20 μl of 50% acetic acid. The percent inhibition of FIXa activity was calculated from OD405 nm values in the absence and presence of a compound.

T1 sequence (P13726 33-275 limits assumed, one chain of several): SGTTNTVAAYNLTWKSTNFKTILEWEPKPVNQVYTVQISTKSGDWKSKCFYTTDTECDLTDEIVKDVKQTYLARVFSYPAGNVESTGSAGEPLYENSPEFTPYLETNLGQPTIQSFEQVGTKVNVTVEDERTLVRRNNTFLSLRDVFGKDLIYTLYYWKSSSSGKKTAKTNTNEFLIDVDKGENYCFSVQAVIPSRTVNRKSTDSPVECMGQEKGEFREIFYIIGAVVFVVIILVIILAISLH
T2 sequence (P13726 33-275 limits assumed, one chain of several): as above
T4 sequence (P00740 227-461 limits assumed): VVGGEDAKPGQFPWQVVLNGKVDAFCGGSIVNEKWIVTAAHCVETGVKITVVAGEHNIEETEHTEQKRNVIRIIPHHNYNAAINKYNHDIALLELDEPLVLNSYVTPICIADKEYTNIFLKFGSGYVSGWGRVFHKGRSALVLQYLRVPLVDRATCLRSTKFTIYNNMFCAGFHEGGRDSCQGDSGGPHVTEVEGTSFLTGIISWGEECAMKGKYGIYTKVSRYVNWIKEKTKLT
T4 sequence (P00740 47-191 limits assumed): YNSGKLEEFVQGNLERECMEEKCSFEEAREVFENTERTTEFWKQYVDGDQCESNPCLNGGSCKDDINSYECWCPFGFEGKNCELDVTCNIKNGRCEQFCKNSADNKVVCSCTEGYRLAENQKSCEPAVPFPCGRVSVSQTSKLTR

O=P(O)(O)C(CNc1cccc(O)c1)P(=O)(O)O [Compound 1, 1-(bisphosponate)-2-amino(3-hydroxyphenyl)ethyl]
blocking activity in standard assay for TF/VIIa-dependent factor IX activation [1]: good blocking activity | inhibition of TF/VIIa-dependent FIX activation [1]: inhibit TF/VIIa-dependent FIX activation | IC50 ([2]; TF/VIIa, FX and compound added simultaneously, FX 5 nM): 18.1 µM | IC50 ([2]; TF/VIIa, FX and compound added simultaneously, FX 30 nM): 33.2 µM | IC50 ([2]; compound preincubated with TF/VIIa 15 minutes at 37° C. prior to FX, FX 5 nM): 8.3 µM | inhibition of FVIIa-dependent FX activation [3]: does not inhibit FVIIa-dependent FX activation | inhibition of FIXa activity (FIXa-dependent FX activation) [4]: do not inhibit FIXa activity

O=P(O)(O)C(CNc1ccc(O)cc1)P(=O)(O)O [Compound 2]
blocking activity in standard assay for TF/VIIa-dependent factor IX activation [1]: good blocking activity | inhibition of TF/VIIa-dependent FIX activation [1]: inhibit TF/VIIa-dependent FIX activation | inhibition of FIXa activity (FIXa-dependent FX activation) [4]: do not inhibit FIXa activity
